Test results from US11884643B2, “Substituted thiophenecarboxamides and analogues as antibacterials agents” (priority 2018, dated 2024).
Like-named read-outs stand apart in the source and are kept apart here.

Tests used:
[1] = Log P by HPLC on reversed phase columns (EEC directive 79/831 Annex V.A8); format: physicochemical
Description: If more than one Log P value is available within the same method, all the values are given and separated by “+”. Calibration was done with straight-chain alkan2-ones (with 3 to 16 carbon atoms) with known Log P values (measurement of Log P values using retention times with linear interpolation between successive alkanones). Lambda-max-values were determined using UV-spectra from 200 nm to 400 nm and the peak values of the chromatographic signals.

[2] = system: Xanthomonas campestris pv. Campestris; experiment: Xanthomonas campestris pv. Campestris in vitro cell test (bacteria growth in liquid culture); format: cell-based; details: 20 ppm of tested compound, 24 h of incubation
Description: Culture medium: LB broth medium (Luria Broth Miller) Sigma
Inoculum: bacteria suspension
Compounds to be tested were solubilized in DMSO and the solution used to prepare the required range of concentrations. The final concentration of DMSO used in the assay was ≤1%.
Inoculum was prepared from a pre-culture of bacteria grown in liquid medium and diluted to the desired optical density (OD).
Compounds were evaluated for their ability to inhibit bacteria growth in liquid culture assay. The compounds were added in the desired concentrations to culture medium containing the bacteria suspension. After 24 h of incubation, the efficacy of compounds was determined by spectrometric measurement of bacteria growth. Inhibition was determined by comparing the absorbance values in wells containing the compounds with the absorbance in control wells without compounds.

[3] = method [a]: LC-UV, acidic range, 0.1% formic acid in water and acetonitrile as eluent
[4] = reversed phase HPLC columns, method [a]: LC-UV, acidic range, 0.1% formic acid in water and acetonitrile as eluent, read-out: LogP
[5] = reversed phase HPLC columns, value given in preparation example, method letter not indicated, read-out: Log P

O=C1OC(c2sc(Br)c(Br)c2F)=NC12CC2 [III.01, 5-(4,5-dibromo-3-fluoro-2-thienyl)-6-oxa-4-azaspiro[2.4]hept-4-en-7-one]
chromatographic logP ([1]; Log P): 3.58 | chromatographic logP ([1]; LogP): 3.57 | direct activity (inhibition of bacteria growth) [2]: no direct activity

Cc1c(C2=NC3(CC3)C(=O)O2)sc(Br)c1Br [III.02]
LogP [1, 3]: 4.33^[a] | direct activity (inhibition of bacteria growth) [2]: no direct activity

O=C1OC(c2sc(Cl)c(Cl)c2Cl)=NC12CC2 [III.03]
LogP [1, 3]: 4.01^[a] | direct activity (inhibition of bacteria growth) [2]: no direct activity

Cc1c(C2=NC3(CC3)C(=O)O2)sc(Cl)c1Cl [III.04]
LogP [1, 3]: 4.30^[a] | direct activity (inhibition of bacteria growth) [2]: no direct activity

O=C1OC(c2sc(Br)c(Br)c2I)=NC12CC2 [III.05]
LogP [1, 3]: 4.30^[a] | direct activity (inhibition of bacteria growth) [2]: no direct activity

O=C1OC(c2sc(Br)c(Br)c2Br)=NC12CC2 [III.06]
LogP [1, 3]: 4.15^[a]

O=C1OC(c2sc(Cl)c(Cl)c2Br)=NC12CC2 [III.07]
LogP [1, 3]: 4.12^[a]

O=C1OC(c2sc(Br)c(Br)c2Cl)=NC12CC2 [III.08]
LogP [1, 3]: 4.08^[a]

O=C1OC(c2sc(Cl)c(Cl)c2I)=NC12CC2 [III.09]
LogP [1, 3]: 4.23^[a]

CCOC(=O)C1(NC(=O)c2sc(Br)c(Br)c2F)CC1 [XXI.01, ethyl 1-{[(4,5-dibromo-3-fluoro-2-thienyl)carbonyl]amino}cyclopropanecarboxylate]
chromatographic logP [1, 4]: 3.17 | chromatographic logP [1, 5]: 3.15

O=C(NC1(C(=O)O)CC1)c1sc(Br)c(Br)c1F [XXI.03, 1-{[(4,5-dibromo-3-fluoro-2-thienyl)carbonyl]amino}cyclopropanecarboxylic acid]
chromatographic logP [1, 4]: 2.14 | chromatographic logP [1, 5]: 2.15

CCOC(=O)C1(NC(=O)c2sc(Cl)c(Cl)c2Cl)CC1 [XXI.05, ethyl 1-{[(3,4,5-trichloro-2-thienyl)carbonyl]amino}cyclopropanecarboxylate]
LogP [1, 3]: 3.41^[a]

CCOC(=O)C1(NC(=O)c2sc(Cl)c(Cl)c2I)CC1 [XXI.08, ethyl 1-{[(4,5-dichloro-3-iodo-2-thienyl)carbonyl]amino}cyclopropanecarboxylate]
chromatographic logP [1, 4]: 3.39

CCOC(=O)C1(NC(=O)c2sc(Cl)c(Cl)c2C)CC1 [XXI.11, ethyl 1-{[(4,5-dichloro-3-methyl-2-thienyl)carbonyl]amino}cyclopropanecarboxylate]
chromatographic logP [1, 4]: 3.16 | chromatographic logP [1, 5]: 3.16

Cc1c(C(=O)NC2(C(=O)O)CC2)sc(Cl)c1Cl [XXI.14]
LogP [1, 3]: 2.17^[a]

O=C(NC1(C(=O)O)CC1)c1sc(Cl)c(Cl)c1Br [XXI.22]
LogP [1, 3]: 2.37^[a]

O=C(O)c1sc(Cl)c(Cl)c1Br [XXIIa.06]
LogP [1, 3]: 2.52^[a]

COC(=O)c1sc(Cl)c(Cl)c1Br [XXIIa.09]
LogP [1, 3]: 4.11^[a]

CC(C)COC(=O)c1sc(Cl)c(Cl)c1Cl [XXIIa.13]
LogP [1, 3]: 5.75^[a]

CCOC(=O)C1(NC(=O)c2sc(Cl)c(Cl)c2N)CC1 [XXVIII.01, ethyl 1-{[(3-amino-4,5-dichloro-2-thienyl)carbonyl]amino}cyclopropanecarboxylate]
LogP [1, 3]: 2.77^[a] | Log P ([1]; value given in preparation example, method letter not indicated): 2.77

Cl.Nc1c(C(=O)O)sc(Cl)c1Cl [XXXa.02, 3-amino-4,5-dichlorothiophene-2-carboxylic acid hydrochloride (1:1)]
LogP [1, 3]: 2.05^[a]
